Assay results published in patent US20010006697A1, “Composition and method for producing low cholesterol eggs” (priority 1997, published 2001).
Entries after “also recorded” stand apart in the source; their conditions may differ. Marks after values point to notes of the source that are not given here.

Key:
[1] = tested on: apolipoprotein B (apoB) mRNA; assay: Northern blot of liver mRNA: apoB; type: in vivo, White Leghorn hens; conditions: normalized by 18S rRNA; day 35
Description: Endocrinol. […] Endocrinol.

laying hens [2] = assay: Egg production, egg weights and yolk weights of statin-treated laying hens; type: in vivo, White Leghorn hens
Method: Hens were treated as described in Example 1. Egg yolk was weighed as outlined in Example 2.

laying hens [3] = assay: Yolk cholesterol contents of eggs from statin-treated laying hens; type: in vivo, White Leghorn hens; conditions: for less total yolk cholesterol than control eggs: week 2, per yolk
Method: Agric. […] Hens were treated as described in Example 1. […] The eggs were hard-cooked, and the yolks were separated, weighed, and crumbled. […] Agric. […] Egg homogenate filtrates were analyzed for cholesterol as described in Rudel, L. L. and Morris, M. D., J. Lipid Res. 14:364-366 (1973).

[4] = Liver weight of statin-treated laying hens; conditions: day 35
laying hens [5] = assay: Liver cholesterol content; conditions: day 35
[6] = 0.03% of diet, Overall (weeks 1-5)
[7] = 0.06% of diet, Overall (weeks 1-5)
[8] = 0.03% of diet, Week 1, listed as atorvastatin
[9] = 0.06% of diet, Week 1, listed as atorvastatin
[10] = 0.06% of diet, week 5 (maximal reduction for simvastatin, lovastatin)

SMILES: CC(C)c1c(C(=O)Nc2ccccc2)c(-c2ccccc2)c(-c2ccc(F)cc2)n1CC[C@@H](O)C[C@@H](O)CC(=O)O [Atorvastatin, (ΔR,δR)-2-(p-fluorophenyl)-β,δ-dihydroxy-5-isopropyl-3-phenyl-4-(phenylcarbamoyl)pyrrole-1-heptanoic acid]
- hepatic apoB mRNA, linear contrasts (P≦0.05) [1]: atorvastatin>lovastatin; also recorded: atorvastatin>simvastatin
- Egg weight, g (laying hens [2]; [6]): 61.3 ± 1.0^a,b (132) g
- Hen-day egg production, % (laying hens [2]; [6]): 75.4 ± 4.1^b,c (132) %
- Yolk weight, g (laying hens [2]; [6]): 16.6 ± 0.1^a (25) g
- Egg weight, g (laying hens [2]; 0.03% of diet, Week 1): 63.0 ± 0.7^a g
- Hen-day egg production, % (laying hens [2]; 0.03% of diet, Week 1): 82.9 ± 1.8^c,d %
- Yolk weight, g (laying hens [2]; 0.03% of diet, Week 1): 17.2 ± 0.3^a g
- Egg weight, g (laying hens [2]; 0.03% of diet, Week 2): 61.2 ± 0.8^c,d g
- Hen-day egg production, % (laying hens [2]; 0.03% of diet, Week 2): 68.6 ± 1.0^c %
- Yolk weight, g (laying hens [2]; 0.03% of diet, Week 2): 16.2 ± 0.3^a g
- Egg weight, g (laying hens [2]; 0.03% of diet, Week 3): 60.5 ± 0.8^c g
- Hen-day egg production, % (laying hens [2]; 0.03% of diet, Week 3): 80.0 ± 2.0^b %
- Yolk weight, g (laying hens [2]; 0.03% of diet, Week 3): 16.7 ± 0.4^a g
- Hen-day egg production, % (laying hens [2]; 0.03% of diet, Week 4): 77.1 ± 1.2^c %
- Yolk weight, g (laying hens [2]; 0.03% of diet, Week 4): 16.2 ± 0.2^b g
- Egg weight, g (laying hens [2]; 0.03% of diet, Week 5): 61.0 ± 0.7^b g
- Hen-day egg production, % (laying hens [2]; 0.03% of diet, Week 5): 77.1 ± 1.2^c,d %
- Yolk weight, g (laying hens [2]; 0.03% of diet, Week 5): 16.6 ± 0.3^a g
- Egg weight, g (laying hens [2]; [7]): 58.9 ± 0.9^b (121) g
- Hen-day egg production, % (laying hens [2]; [7]): 69.1 ± 3.5^c (121) %
- Yolk weight, g (laying hens [2]; [7]): 14.3 ± 0.2^b (25) g
- Egg weight, g (laying hens [2]; 0.06% of diet, Week 1): 63.6 ± 0.8^a g
- Hen-day egg production, % (laying hens [2]; 0.06% of diet, Week 1): 82.9 ± 1.0^c,d %
- Yolk weight, g (laying hens [2]; 0.06% of diet, Week 1): 16.1 ± 0.3^a g
- Egg weight, g (laying hens [2]; 0.06% of diet, Week 2): 59.5 ± 1.0^d g
- Hen-day egg production, % (laying hens [2]; 0.06% of diet, Week 2): 60.0 ± 1.8^d %
- Yolk weight, g (laying hens [2]; 0.06% of diet, Week 2): 13.4 ± 0.3^b g
- Egg weight, g (laying hens [2]; 0.06% of diet, Week 3): 56.9 ± 0.7^d g
- Hen-day egg production, % (laying hens [2]; 0.06% of diet, Week 3): 68.6 ± 1.8^c %
- Yolk weight, g (laying hens [2]; 0.06% of diet, Week 3): 13.9 ± 0.5^b g
- Egg weight, g (laying hens [2]; 0.06% of diet, Week 4): 56.8 ± 0.7^e g
- Hen-day egg production, % (laying hens [2]; 0.06% of diet, Week 4): 68.6 ± 1.8^d %
- Yolk weight, g (laying hens [2]; 0.06% of diet, Week 4): 13.9 ± 0.3^c g
- Egg weight, g (laying hens [2]; 0.06% of diet, Week 5): 57.8 ± 0.7^c g
- Hen-day egg production, % (laying hens [2]; 0.06% of diet, Week 5): 74.3 ± 1.0^d %
- Yolk weight, g (laying hens [2]; 0.06% of diet, Week 5): 14.2 ± 0.4^b g
- decrease in yolk weight (laying hens [2]; 0.06% of diet, Week 5): 19%
- Yolk cholesterol content, mg cholesterol/g yolk (laying hens [3]; 0.03% of diet, Week 0): 11.4 ± 0.3^a mg cholesterol/g yolk
- Yolk cholesterol content, mg cholesterol/yolk (laying hens [3]; 0.03% of diet, Week 0): 203.2 ± 7.7^a mg cholesterol/yolk
- Yolk cholesterol content, mg cholesterol/g yolk (laying hens [3]; 0.03% of diet, Week 1): 9.4 ± 0.3^c mg cholesterol/g yolk
- Yolk cholesterol content, mg cholesterol/yolk (laying hens [3]; 0.03% of diet, Week 1): 161.7 ± 5.5^b,c mg cholesterol/yolk
- Yolk cholesterol content, mg cholesterol/g yolk (laying hens [3]; [8]): 9.4 mg cholesterol/g yolk
- Yolk cholesterol content, mg cholesterol/yolk (laying hens [3]; [8]): 161.7 mg cholesterol/yolk
- Yolk cholesterol content, mg cholesterol/g yolk (laying hens [3]; 0.03% of diet, Week 2): 8.7 ± 0.2^e mg cholesterol/g yolk
- Yolk cholesterol content, mg cholesterol/g yolk (laying hens [3]; 0.03% of diet, Week 3): 8.6 ± 0.2^e mg cholesterol/g yolk
- Yolk cholesterol content, mg cholesterol/yolk (laying hens [3]; 0.03% of diet, Week 3): 143.7 ± 3.3^c mg cholesterol/yolk
- Yolk cholesterol content, mg cholesterol/g yolk (laying hens [3]; 0.03% of diet, Week 4): 8.3 ± 0.1^d mg cholesterol/g yolk
- Yolk cholesterol content, mg cholesterol/yolk (laying hens [3]; 0.03% of diet, Week 4): 134.4 ± 2.2^c mg cholesterol/yolk
- Yolk cholesterol content, mg cholesterol/g yolk (laying hens [3]; 0.03% of diet, Week 5): 8.2 ± 0.2^d mg cholesterol/g yolk
- Yolk cholesterol content, mg cholesterol/yolk (laying hens [3]; 0.03% of diet, Week 5): 137.2 ± 3.8^d mg cholesterol/yolk
- Yolk cholesterol content, mg cholesterol/yolk (laying hens [3]; 0.03% of diet, Week 5, listed as atorvastatin): 137.2 mg cholesterol/yolk
- Yolk cholesterol content, mg cholesterol/g yolk (laying hens [3]; 0.06% of diet, Week 0): 11.3 ± 0.3^a mg cholesterol/g yolk
- Yolk cholesterol content, mg cholesterol/yolk (laying hens [3]; 0.06% of diet, Week 0): 191.9 ± 7.3^a mg cholesterol/yolk
- Yolk cholesterol content, mg cholesterol/g yolk (laying hens [3]; 0.06% of diet, Week 1): 9.3 ± 0.2^c mg cholesterol/g yolk
- Yolk cholesterol content, mg cholesterol/yolk (laying hens [3]; 0.06% of diet, Week 1): 149.7 ± 3.8^c mg cholesterol/yolk
- Yolk cholesterol content, mg cholesterol/g yolk (laying hens [3]; [9]): 9.3 mg cholesterol/g yolk
- Yolk cholesterol content, mg cholesterol/yolk (laying hens [3]; [9]): 149.7 mg cholesterol/yolk
- Yolk cholesterol content, mg cholesterol/g yolk (laying hens [3]; 0.06% of diet, Week 2): 7.8 ± 0.3^f mg cholesterol/g yolk
- Yolk cholesterol content, mg cholesterol/yolk (laying hens [3]; 0.06% of diet, Week 2): 105.3 ± 4.3^d mg cholesterol/yolk
- Yolk cholesterol content, mg cholesterol/yolk (laying hens [3]; 0.06% of diet, Week 2, listed as atorvastatin): 105.3 mg cholesterol/yolk
- Yolk cholesterol content, mg cholesterol/g yolk (laying hens [3]; 0.06% of diet, Week 3): 7.5 ± 0.1^f mg cholesterol/g yolk
- Yolk cholesterol content, mg cholesterol/yolk (laying hens [3]; 0.06% of diet, Week 3): 104.0 ± 3.7^d mg cholesterol/yolk
- Yolk cholesterol content, mg cholesterol/g yolk (laying hens [3]; 0.06% of diet, Week 4): 7.5 ± 0.1^e mg cholesterol/g yolk
- Yolk cholesterol content, mg cholesterol/yolk (laying hens [3]; 0.06% of diet, Week 4): 104.2 ± 2.3^d mg cholesterol/yolk
- Yolk cholesterol content, mg cholesterol/g yolk (laying hens [3]; 0.06% of diet, Week 5): 7.6 ± 0.2^d mg cholesterol/g yolk
- yolk cholesterol reduction from control on a per yolk (egg) basis (laying hens [3]; [10]): 46%
- yolk cholesterol reduction from control per g of yolk (mg/g basis) (laying hens [3]; [10]): 35%
- less total yolk cholesterol than control eggs (laying hens [3]; high dose (0.06%)): 45%
- less total yolk cholesterol than control eggs (laying hens [3]; low dose (0.03%)): 27%
- Liver Weight g ([4]; 0.03% of diet): 30.9 ± 1.2^b g
- Liver Weight g/100 g BW ([4]; 0.03% of diet): 1.82 ± 0.05^a,b g/100 g BW
- Liver Weight g ([4]; 0.06% of diet): 35.3 ± 2.3^a g
- Liver Weight g/100 g BW ([4]; 0.06% of diet): 2.02 ± 0.09^a g/100 g BW
- Liver Cholesterol mg/g liver (laying hens [5]; 0.03% of diet): 2.8 ± 0.05^c mg/g liver
- Liver Cholesterol mg/liver (laying hens [5]; 0.03% of diet): 87.4 ± 2.2^a mg/liver
- Liver Cholesterol mg/g liver (laying hens [5]; 0.06% of diet): 2.5 ± 0.07^d mg/g liver
- Liver Cholesterol mg/liver (laying hens [5]; 0.06% of diet): 89.7 ± 5.2^a mg/liver
